# US20150377876A1, “DIAGNOSTIC TOOLS TO PREDICT ONSET OF PREECLAMPSIA” (UNIVERSITY OF IOWA RESEARCH FOUNDATION, priority 2013, published 2015)
# Like-named read-outs stand apart in the source and are kept apart here.
# Legend:
# abdominal aorta [1] = conditions: for Maximum Response, relaxation / Maximum Response, contraction / EC50: abdominal aorta; for Maximum Response, relaxation: after sub-maximal contraction with PGF2a; for EC50: read-out: EC50, contractile response
# Method: (§1) Aortic Vascular Reactivity: Abdominal aortic rings were assessed for vascular reactivity as previously described (30). Briefly, mice were euthanized by overdose of pentobarbital (50 mg, i.p.), and the abdominal aorta was quickly removed and placed in Kreb's buffer containing (in mmol/L): 118.3 NaCl, 4.7 KCl, 1.2 MgSO4, 1.2 KH2PO4, 25 NaHCO3, 2.5 CaCl2 and 11 glucose. Vascular rings (4-5 mm in length) were suspended in oxygenated Kreb's buffer (95% O2/5% CO2) in organ baths at 37° C. and connected to a force transducer via steel hooks. Resting tension was adjusted to 0.5 grams over 45 minutes.
# (§2) Statistics: Data were analyzed by ANOVA with repeated measures as appropriate. Post-hoc analyses were performed using Bonferroni multiple-comparisons procedures. EC50 and maximum response calculations were performed by fitting individual dose-response data sets to a four-parameter logistic function (Hillslope method); y=min+(max−min)/(1+(x/EC50)̂Hill slope). […] All analytical comparisons were performed using SigmaStat/SigmaPlot (Systat). All data are presented as mean±sem.
# abdominal aorta [2] = assay: tissue or blood; conditions: Mus musculus
# Method: as §1, §2
# [3] = system: 2°-branch mesenteric artery; assay: tissue or blood; parameters: species or system mice; conditions: for Maximum Response, contraction / EC50: mesenteric artery; for EC50: read-out: EC50, contractile response
# Method: Mesenteric Artery Vascular Reactivity: Secondary branches of mesenteric artery were dissected and placed in chilled oxygenated (21% O2, 5% CO2, and 74% N2) Kreb's buffer. A segment (˜1 mm long) of artery was transferred to a vessel chamber (DMT), cannulated with glass micropipettes and secured with silk ligatures. The artery was slowly pressurized to 40 mmHg without flow. After 30 min equilibration, vessel viability was tested by constriction response to 100 mM KCl. Vascular responses to PE (10-9-10-5 mol/L), AVP (10-12-10-7 mol/L), and ET-1 (10-11-10-8 mol/L) were then assessed. The artery was then superfused with calcium-free Krebs buffer containing 10-5 mol/L sodium nitroprusside and 2 mmol/L EGTA to maximally dilate the vessel. Internal and external diameters were measured at 75 mm Hg. Wall thickness, media/lumen ratio and cross sectional area (CSA) were calculated as previously described by Neves, et al. (58).
# Statistics: Data were analyzed by ANOVA with repeated measures as appropriate. Post-hoc analyses were performed using Bonferroni multiple-comparisons procedures. EC50 and maximum response calculations were performed by fitting individual dose-response data sets to a four-parameter logistic function (Hillslope method); y=min+(max−min)/(1+(x/EC50)̂Hill slope). All mRNA fold changes were calculated using the Livak method (51). All analytical comparisons were performed using SigmaStat/SigmaPlot (Systat). All data are presented as mean±sem.
# C57B1/6J mice = assay: Vasopressin infusion during pregnancy, preeclampsia-like phenotypes; format: in vivo
# Method: Animal Studies: Female C57B1/6J mice were obtained from Jackson Laboratories between 8-12 weeks of age. Osmotic minipumps infusing vasopressin (240 ng/hr) or saline vehicle were inserted into the subcutaneous space via incision between the scapulae. Following three days of recovery, females were mated with male C57B1/6J mice. Presence of a vaginal plug indicated gestational day 0.5. Blood pressure was tracked before mating and throughout gestation by tail-cuff plethysmography. On gestational day 18, females were sacrificed for necropsy. Pup weight was recorded. Dam kidney sections were generated and imaged by electron microscopy by the University of Iowa Department of Pathology. All studies were approved by the University of Iowa Animal Care and Use Committee (ACURF#1211239).
# [4] = in blood; cited from earlier work
# sRA mice [5] = assay: Blood pressure by tail-cuff during chronic subcutaneous infusion; format: in vivo; conditions: 22 ng/h sc by osmotic minipump, 10 days
# Method: Here we first examined blood pressure in sRA mice using a Visitech Systems BP-2000 tail-cuff blood pressure monitoring system, as previously described (79). Briefly, animals were acclimated to warmed restraint boxes daily for 1 wk. Once acclimated, 30 measurements of systolic blood pressure were averaged from each animal daily for 2 wk to assess baseline blood pressure. Conivaptan (Vaprisol, YM 087, 22 ng/h sc, Baxter Healthcare) or tolvaptan (OPC-41061, 22 ng/h sc, Sigma Aldrich) was delivered to distinct subsets of mice by osmotic minipump (model 1004, Alzet). After osmotic minipump implantation, pressures were recorded daily for 10 days to assess drug effects.
# sRA mice [6] = assay: Radiotelemetric blood pressure, heart rate and physical activity during chronic subcutaneous infusion; format: in vivo; conditions: for radiotelemetric blood pressure: sRA mice, 22 ng/h sc infusion (conivaptan 18 days, one female; tolvaptan 10 days, n=4 female)
# Method: Blood pressure (telemetry). Radiotelemetric blood pressures were recorded from the carotid artery essentially as previously reported (27). Briefly, a telemeter probe (DSI, model TA11PA-C10) was inserted into the common carotid artery under ketamine-xylazine anesthesia. After >2 days of recovery, blood pressure, heart rate, and spontaneous physical activity were recorded for 30 s every 5 min using the Dataquest program (DSI). After baseline recordings, mice were chronically delivered conivaptan and tolvaptan via osmotic minipump that was implanted through an interscapular incision into the subcutaneous space of the back under isoflurane anesthesia.
# [7] = system: sRA and control littermate mice; assay: Blood chemistry following tolvaptan infusion (iSTAT CHEM8+); format: in vivo; conditions: for Anion gap / BUN / Chloride / Glucose / Hematocrit / Ionized calcium / Potassium / Sodium / Total CO2 / Creatinine: tolvaptan 22 ng/h, 10 days sc; for Creatinine: lower detection limit 0.20 mg/dl
# Method: Blood and urine analyses: Plasma was obtained by collecting whole blood by submandibular bleed into lithium heparin coated tubes, then centrifuged at 5,000×g for 5 minutes, and the supernatant transferred to a fresh tube and frozen at −80° C. until analysis. Urine was collected using Nalgene single-mouse metabolism cages as previously described (20). Copeptin was measured using an ELISA kit (USCN Life Sciences), according to the manufacturer's instructions. Blood chemistries and urine creatinine were determined using a handheld iSTAT clinical chemistry analyzer (Abbott), with CHEM8+ cartridges. Urine protein was determined using a bicinchoninic acid assay kit (Thermo Fisher/Pierce), according to the manufacturer's instructions.
# [8] = female sRA mouse, 22 ng/h sc, 18 days
compound,measurement,setting,value
"CC(=O)OCC[N+](C)(C)C [Acetylcholine, acetylcholine]","Maximum Response, relaxation",abdominal aorta [1]; male control mice,78.9 ± 3.3%
same,"Maximum Response, relaxation",abdominal aorta [1]; male sRA mice,70.4 ± 8.9%
same,EC50,"abdominal aorta [2]; read-out: EC50, relaxation response, abdominal aorta, male control mice, after sub-maximal contraction with PGF2a",130 ± 35 nM
same,EC50,"abdominal aorta [2]; read-out: EC50, relaxation response, abdominal aorta, male sRA mice, after sub-maximal contraction with PGF2a",879 ± 298 nM
"CC[C@H](C)[C@H](NC(=O)[C@H](Cc1ccc(O)cc1)NC(=O)[C@@H](NC(=O)[C@H](CCCNC(=N)N)NC(=O)[C@@H](N)CC(=O)O)C(C)C)C(=O)N[C@@H](Cc1c[nH]cn1)C(=O)N1CCC[C@H]1C(=O)N[C@@H](Cc1ccccc1)C(=O)O [Angiotensin II, angiotensin II]","Maximum Response, contraction",abdominal aorta [1]; male control littermate mice,0.32 ± 0.03 g
same,"Maximum Response, contraction",abdominal aorta [1]; male sRA mice,0.38 ± 0.03 g
"NC(=O)CC[C@@H]1NC(=O)[C@H](Cc2ccccc2)NC(=O)[C@H](Cc2ccc(O)cc2)NC(=O)[C@@H](N)CSSC[C@@H](C(=O)N2CCC[C@H]2C(=O)N[C@@H](CCCN=C(N)N)C(=O)NCC(N)=O)NC(=O)[C@H](CC(N)=O)NC1=O [Arginine vasopressin, arginine vasopressin]","Maximum Response, contraction",[3]; male control littermate mice,52.5 ± 3.2%
same,EC50,[3]; male control littermate mice,0.57 ± 0.15 nM
same,EC50,[3]; male sRA mice,15.9 ± 13.5 nM
same,renal pathology (electron microscopy),"C57B1/6J mice; dam kidney, gestational day 18, 240 ng/hr sc minipump",pathognomic glomerular endotheliosis
same,rate of pregnancy (fecundity),"C57B1/6J mice; female C57B1/6J mice, 240 ng/hr sc minipump",significantly reduced the rate of pregnancy
same,fetal growth,"C57B1/6J mice; gestational day 18 fetuses, 240 ng/hr sc minipump",substantial fetal growth restriction
same,proteinuria,"C57B1/6J mice; pregnant C57B1/6J mice, 240 ng/hr sc minipump",apparent proteinuria
same,blood pressure during pregnancy,"C57B1/6J mice; pregnant C57B1/6J mice, 240 ng/hr sc minipump, tail-cuff",robust increase in blood pressure
same,"Maximum Response, contraction",abdominal aorta [1]; male control littermate mice,0.29 ± 0.03 g
same,"Maximum Response, contraction",abdominal aorta [1]; male sRA mice,0.12 ± 0.01 g
same,EC50,abdominal aorta [1]; male control littermate mice,2.19 ± 0.19 nM
same,EC50,abdominal aorta [1]; male sRA mice,3.72 ± 0.73 nM
same,biological half-life,[4],5-20 minutes
"CC[C@H](C)[C@H](NC(=O)[C@H](CC(=O)O)NC(=O)[C@H](CC(C)C)NC(=O)[C@H](Cc1c[nH]cn1)NC(=O)[C@@H]1CSSC[C@H](N)C(=O)N[C@@H](CO)C(=O)N[C@H]2CSSC[C@H](NC(=O)[C@H](CCC(=O)O)NC(=O)[C@H](CCCCN)NC(=O)[C@H](CC(=O)O)NC(=O)[C@H](CCSC)NC(=O)[C@H](CC(C)C)NC(=O)[C@H](CO)NC(=O)[C@H](CO)NC2=O)C(=O)N[C@@H](C(C)C)C(=O)N[C@@H](Cc2ccc(O)cc2)C(=O)N[C@@H](Cc2ccccc2)C(=O)N1)C(=O)N[C@H](C(=O)N[C@@H](Cc1c[nH]c2ccccc12)C(=O)O)[C@@H](C)CC [Endothelin-1, endothelin-1]","Maximum Response, contraction",[3]; male control littermate mice,67.8 ± 4.3%
same,EC50,[3]; male control littermate mice,1.68 ± 0.43 nM
same,"Maximum Response, contraction",[3]; male sRA mice,58 ± 4.6%
same,EC50,[3]; male sRA mice,0.45 ± 0.17 nM
same,"Maximum Response, contraction",abdominal aorta [1]; male control littermate mice,0.45 ± 0.04 g
same,"Maximum Response, contraction",abdominal aorta [1]; male sRA mice,0.55 ± 0.09 g
same,EC50,abdominal aorta [1]; male control littermate mice,3.4 ± 0.33 nM
same,EC50,abdominal aorta [1]; male sRA mice,5.19 ± 0.93 nM
"CNC[C@H](O)c1cccc(O)c1 [Phenylephrine, phenylephrine]",EC50,"[3]; Mus musculus, male control littermate mice",1460 nM
same,EC50,"[3]; Mus musculus, male sRA mice",560 ± 80 nM
same,"Maximum Response, contraction",[3]; male control littermate mice,67.3 ± 3%
same,"Maximum Response, contraction",[3]; male sRA mice,64.5 ± 4.1%
same,"Maximum Response, contraction",abdominal aorta [1]; male control littermate mice,1.18 ± 0.05 g
same,"Maximum Response, contraction",abdominal aorta [1]; male sRA mice,1.02 ± 0.10 g
same,EC50,"abdominal aorta [2]; read-out: EC50, contractile response, abdominal aorta, male control littermate mice",1900 nM
same,EC50,"abdominal aorta [2]; read-out: EC50, contractile response, abdominal aorta, male sRA mice",2430 nM
"CCCCC[C@H](O)/C=C/[C@@H]1[C@@H](C/C=C\CCCC(=O)O)[C@@H](O)C[C@H]1O [Prostaglandin F2α, prostaglandin F2a]","Maximum Response, contraction",abdominal aorta [1]; male control littermate mice,1.59 ± 0.06 g
same,"Maximum Response, contraction",abdominal aorta [1]; male sRA mice,1.50 ± 0.10 g
same,EC50,abdominal aorta [1]; male control littermate mice,4600 nM
same,EC50,abdominal aorta [1]; male sRA mice,3600 nM
"Cc1ccccc1C(=O)Nc1ccc(C(=O)N2CCC[C@@H](O)c3cc(Cl)ccc32)c(C)c1 [Tolvaptan, tolvaptan]","systolic blood pressure (tail-cuff), effect on hypertension",sRA mice [5],nearly identical normalization of blood pressure
same,radiotelemetric blood pressure,sRA mice [6],blood pressure reduction was confirmed
same,Anion gap,[7]; female control mice,17.0 ± 1.5 mM
same,BUN,[7]; female control mice,18.4 ± 0.9 mg/dL
same,Chloride,[7]; female control mice,112.4 ± 0.5 mM
same,Glucose,[7]; female control mice,190 ± 13 mg/dL
same,Hematocrit,[7]; female control mice,45.4 ± 0.7 % RBC
same,Ionized calcium,[7]; female control mice,1.19 ± 0.05 mM
same,Potassium,[7]; female control mice,6.4 ± 0.1 mM
same,Sodium,[7]; female control mice,146.2 ± 0.7 mM
same,Total CO2,[7]; female control mice,24.0 ± 1.1 mM
same,Creatinine,[7]; female control mice,0.24 ± 0.02 mg/dL
same,Anion gap,[7]; female sRA mice,18.5 ± 0.7 mM
same,BUN,[7]; female sRA mice,24.5 ± 1.7 mg/dL
same,Chloride,[7]; female sRA mice,105.2 ± 1.6 mM
same,Glucose,[7]; female sRA mice,136 ± 15 mg/dL
same,Hematocrit,[7]; female sRA mice,49.8 ± 1.1 % RBC
same,Ionized calcium,[7]; female sRA mice,1.18 ± 0.03 mM
same,Potassium,[7]; female sRA mice,5.3 ± 0.3 mM
same,Sodium,[7]; female sRA mice,146.3 ± 0.7 mM
same,Total CO2,[7]; female sRA mice,28.8 ± 1.7 mM
same,Creatinine,[7]; female sRA mice,0.33 ± 0.04 mg/dL
same,Anion gap,[7]; male control mice,16.3 ± 0.5 mM
same,BUN,[7]; male control mice,21.5 ± 0.9 mg/dL
same,Chloride,[7]; male control mice,115.5 ± 0.3 mM
same,Glucose,[7]; male control mice,182 ± 7 mg/dL
same,Hematocrit,[7]; male control mice,43.8 ± 1.1 % RBC
same,Ionized calcium,[7]; male control mice,1.18 ± 0.04 mM
same,Potassium,[7]; male control mice,6.6 ± 0.5 mM
same,Sodium,[7]; male control mice,148.3 ± 1.3 mM
same,Total CO2,[7]; male control mice,24.0 ± 0.8 mM
same,Creatinine,[7]; male control mice,0.25 ± 0.03 mg/dL
same,Anion gap,[7]; male sRA mice,21.0 ± 2.4 mM
same,BUN,[7]; male sRA mice,27.3 ± 2.1 mg/dL
same,Chloride,[7]; male sRA mice,107.0 ± 2.7 mM
same,Glucose,[7]; male sRA mice,181 ± 28 mg/dL
same,Hematocrit,[7]; male sRA mice,52.0 ± 1.1 % RBC
same,Ionized calcium,[7]; male sRA mice,1.18 ± 0.03 mM
same,Potassium,[7]; male sRA mice,5.4 ± 0.1 mM
same,Sodium,[7]; male sRA mice,147.5 ± 1.9 mM
same,Total CO2,[7]; male sRA mice,26.0 ± 3.4 mM
same,Creatinine,[7]; male sRA mice,0.30 ± 0.04 mg/dL
same,effect on hyponatremia and hypocalcemia,"[7]; sRA mice, chronic tolvaptan 22 ng/h sc, 10 days",corrected both of these imbalances
Cc1nc2c([nH]1)-c1ccccc1N(C(=O)c1ccc(NC(=O)c3ccccc3-c3ccccc3)cc1)CC2 [conivaptan],"systolic blood pressure (tail-cuff), effect on hypertension",sRA mice [5],complete normalization of the hypertension
same,heart rate (telemetry),sRA mice [6]; [8],slight reduction in heart rate
same,spontaneous physical activity,sRA mice [6]; [8],remained normal
same,radiotelemetric blood pressure,sRA mice [6],gradual but substantial reduction in blood pressure
[Cl-].[K+] [potassium chloride],contractile response to potassium chloride,"[3]; mesenteric artery branches of sRA mice vs control, 100 mM KCl",significant reduction in contractile response
same,constrictor response to potassium chloride,"abdominal aorta [1]; aortic rings from sRA mice vs control, 100 mmol/l KCl",normal constrictor responses
